Assay results: ChEMBL document CHEMBL1909046, “DrugMatrix in vitro pharmacology data”
pIC50: −log10 of the molar value.

What was measured:
[1] = molecular target: Receptor tyrosine-protein kinase erbB-2 (Homo sapiens, UniProt P04626); assay: biochemical; assay type: cell-based, Insect cells; conditions: for IC50: insect cells; for pIC50: read-out: IC50;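 for all read-outs here: inhibition of HER2 kinase enzyme activity, measured with Poly(Glu:Tyr) as the phosphorylation substrate; in other assays of this panel Not Active means under 50% inhibition at 10 µM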
Receptor tyrosine-protein kinase erbB-2, sequence (P04626 whole entry): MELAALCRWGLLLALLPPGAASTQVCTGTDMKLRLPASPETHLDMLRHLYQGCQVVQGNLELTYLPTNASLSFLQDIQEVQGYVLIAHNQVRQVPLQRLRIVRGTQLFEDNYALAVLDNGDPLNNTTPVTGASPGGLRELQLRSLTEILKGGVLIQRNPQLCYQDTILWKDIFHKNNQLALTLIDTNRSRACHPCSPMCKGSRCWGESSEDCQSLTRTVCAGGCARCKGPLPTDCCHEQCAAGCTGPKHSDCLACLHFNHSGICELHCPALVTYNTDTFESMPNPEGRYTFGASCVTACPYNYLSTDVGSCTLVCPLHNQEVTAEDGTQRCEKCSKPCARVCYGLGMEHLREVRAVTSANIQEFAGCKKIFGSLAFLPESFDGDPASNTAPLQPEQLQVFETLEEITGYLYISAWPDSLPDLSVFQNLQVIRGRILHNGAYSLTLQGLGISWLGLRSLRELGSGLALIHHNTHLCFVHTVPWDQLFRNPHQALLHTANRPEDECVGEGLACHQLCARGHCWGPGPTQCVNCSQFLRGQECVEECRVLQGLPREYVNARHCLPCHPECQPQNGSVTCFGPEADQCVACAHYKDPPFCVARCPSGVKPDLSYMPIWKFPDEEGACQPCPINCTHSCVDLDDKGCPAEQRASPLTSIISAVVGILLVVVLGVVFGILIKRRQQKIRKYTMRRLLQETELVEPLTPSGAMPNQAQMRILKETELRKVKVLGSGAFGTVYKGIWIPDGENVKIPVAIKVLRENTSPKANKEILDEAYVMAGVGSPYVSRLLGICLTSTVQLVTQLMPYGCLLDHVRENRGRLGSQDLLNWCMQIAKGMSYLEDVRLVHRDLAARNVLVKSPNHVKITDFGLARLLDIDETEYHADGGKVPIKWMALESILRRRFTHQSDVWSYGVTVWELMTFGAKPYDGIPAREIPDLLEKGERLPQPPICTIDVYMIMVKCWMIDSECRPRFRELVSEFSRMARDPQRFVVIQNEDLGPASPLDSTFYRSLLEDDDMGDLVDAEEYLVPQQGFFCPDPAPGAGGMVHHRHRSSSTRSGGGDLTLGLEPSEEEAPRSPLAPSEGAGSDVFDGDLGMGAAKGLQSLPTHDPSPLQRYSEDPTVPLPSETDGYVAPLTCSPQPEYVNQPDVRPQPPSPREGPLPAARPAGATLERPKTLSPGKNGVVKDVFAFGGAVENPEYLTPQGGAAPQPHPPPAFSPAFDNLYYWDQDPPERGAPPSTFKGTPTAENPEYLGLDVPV

[2] = DRUGMATRIX: Phorbol Ester radioligand binding (ligand: [3H] PDBu); assay type: cell membranes, Mus musculus, ICR, Brain, Membrane; conditions: Not Active = under 50% inhibition at 10 µM
Neutrophil elastase = molecular target: T1, Neutrophil elastase (Homo sapiens, UniProt P08246); assay type: tissue-based;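 note: inhibition of neutrophil elastase enzyme activity, measured with a p-nitroanilide-linked peptide substrate; in other assays of this panel Not Active means under 50% inhibition at 10 µM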
T1 sequence (P08246 whole entry): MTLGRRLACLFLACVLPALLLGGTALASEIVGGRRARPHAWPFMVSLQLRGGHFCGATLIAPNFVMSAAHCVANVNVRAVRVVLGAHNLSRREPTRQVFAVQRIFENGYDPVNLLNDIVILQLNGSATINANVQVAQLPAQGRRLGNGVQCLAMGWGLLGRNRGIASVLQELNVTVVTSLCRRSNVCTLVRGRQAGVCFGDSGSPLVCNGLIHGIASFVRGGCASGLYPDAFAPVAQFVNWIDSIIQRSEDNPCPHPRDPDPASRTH

[3] = DRUGMATRIX: GABAA, Chloride Channel, TBOB radioligand binding (ligand: [3H] TBOB); assay type: cell membranes, Rattus norvegicus, Wistar, Cerebral cortex, Membrane; conditions: Not Active = under 50% inhibition at 10 µM
[4] = DRUGMATRIX: GABAA, Muscimol, Central radioligand binding (ligand: [3H] Muscimol); assay type: cell membranes, Rattus norvegicus, Wistar, Brain, Membrane; conditions: Not Active = under 50% inhibition at 10 µM
[5] = molecular target: Tyrosine-protein kinase Fyn (Homo sapiens, UniProt P06241); assay: biochemical; assay type: cell-based, Insect cells; conditions: for pIC50: read-out: IC50; for IC50: insect cells;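 for all read-outs here: enzymatic inhibition of Fyn kinase activity measured with Poly(Glu:Tyr) as the phosphorylation substrate; in other assays of this panel Not Active means under 50% inhibition at 10 µM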
Tyrosine-protein kinase Fyn, sequence (P06241 whole entry): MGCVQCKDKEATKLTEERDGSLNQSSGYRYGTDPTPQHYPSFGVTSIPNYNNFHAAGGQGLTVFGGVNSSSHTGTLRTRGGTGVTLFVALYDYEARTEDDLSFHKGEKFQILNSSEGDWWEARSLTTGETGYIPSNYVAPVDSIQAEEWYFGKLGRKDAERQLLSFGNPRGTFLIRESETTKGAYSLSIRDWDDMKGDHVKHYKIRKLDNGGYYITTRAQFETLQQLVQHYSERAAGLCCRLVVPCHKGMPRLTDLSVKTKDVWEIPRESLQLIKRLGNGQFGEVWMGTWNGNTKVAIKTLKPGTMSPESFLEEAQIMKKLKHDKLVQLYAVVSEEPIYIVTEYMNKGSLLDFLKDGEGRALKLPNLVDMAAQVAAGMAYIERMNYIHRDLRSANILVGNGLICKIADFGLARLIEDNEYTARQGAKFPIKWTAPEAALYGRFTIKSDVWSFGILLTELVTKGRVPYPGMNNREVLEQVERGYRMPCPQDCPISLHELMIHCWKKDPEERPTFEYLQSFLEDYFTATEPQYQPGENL

[6] = molecular target: T2, Neuropeptide Y receptor type 1 (Homo sapiens, UniProt P25929); assay type: cell membranes, Membrane; conditions: sk-n-mc; note: in other assays of this panel Not Active means under 50% inhibition at 10 µM
T2 sequence (P25929 whole entry): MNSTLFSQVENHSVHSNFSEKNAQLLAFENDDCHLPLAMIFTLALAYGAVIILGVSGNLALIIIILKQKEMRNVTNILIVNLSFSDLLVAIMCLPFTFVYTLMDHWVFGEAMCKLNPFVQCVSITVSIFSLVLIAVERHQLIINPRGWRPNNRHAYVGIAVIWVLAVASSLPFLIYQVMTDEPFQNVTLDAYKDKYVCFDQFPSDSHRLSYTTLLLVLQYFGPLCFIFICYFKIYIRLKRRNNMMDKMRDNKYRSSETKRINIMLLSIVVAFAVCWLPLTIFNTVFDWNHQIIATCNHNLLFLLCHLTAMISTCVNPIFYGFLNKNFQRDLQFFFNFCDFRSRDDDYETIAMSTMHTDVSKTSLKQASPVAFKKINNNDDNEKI

Cytochrome P450 2C19 = Cytochrome P450 2C19 (Homo sapiens, UniProt P33261); conditions: bti-tn-5b1-4; note: in other assays of this panel Not Active means under 50% inhibition at 10 µM
Cytochrome P450 2C19, sequence (P33261 whole entry): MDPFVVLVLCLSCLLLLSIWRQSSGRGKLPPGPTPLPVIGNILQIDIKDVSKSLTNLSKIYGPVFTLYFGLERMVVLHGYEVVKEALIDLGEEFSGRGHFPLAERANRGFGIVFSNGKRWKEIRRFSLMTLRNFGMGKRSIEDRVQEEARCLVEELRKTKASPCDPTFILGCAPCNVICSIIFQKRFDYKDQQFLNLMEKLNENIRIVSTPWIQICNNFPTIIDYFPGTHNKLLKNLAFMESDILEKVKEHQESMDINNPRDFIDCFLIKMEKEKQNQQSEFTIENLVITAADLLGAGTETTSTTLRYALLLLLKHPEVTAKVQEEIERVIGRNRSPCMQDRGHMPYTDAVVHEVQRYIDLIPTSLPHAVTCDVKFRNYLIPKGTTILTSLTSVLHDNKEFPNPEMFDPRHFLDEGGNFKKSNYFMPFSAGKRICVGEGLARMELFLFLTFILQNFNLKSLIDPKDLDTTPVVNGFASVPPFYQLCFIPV

## Cc1c(C)c2c(c(C)c1O)CCC(C)(CN1CCN(c3cc(N4CCCC4)nc(N4CCCC4)n3)CC1)O2 (stereo unspecified)
[1]
  IC50: Not Active
[2]
  IC50: Not Active
  Ki: Not Active
Neutrophil elastase
  IC50: Not Active
[3]
  IC50: Not Active
  Ki: Not Active
[4]
  IC50: Not Active
  Ki: Not Active
[5]
  pIC50: 5.78
[6]
  IC50: Not Active

## COc1ccc(CCN(C)CCCC(C#N)(c2ccc(OC)c(OC)c2)C(C)C)cc1OC (stereo unspecified)
[1]
  IC50: Not Active
[2]
  IC50: Not Active
  Ki: Not Active
Neutrophil elastase
  IC50: Not Active
Cytochrome P450 2C19
  IC50: Not Active
  Ki: Not Active
[3]
  IC50: Not Active
  Ki: Not Active
[4]
  IC50: Not Active
  Ki: Not Active
[5]
  IC50: Not Active
[6]
  IC50: Not Active

## CC(C)Cc1ccc([C@@H](C)C(=O)O)cc1 [(R)-IBUPROPHEN]
[1]
  IC50: Not Active
[2]
  IC50: Not Active
  Ki: Not Active
Neutrophil elastase
  IC50: Not Active
Cytochrome P450 2C19
  IC50: Not Active
  Ki: Not Active
[3]
  IC50: Not Active
  Ki: Not Active
[4]
  IC50: Not Active
  Ki: Not Active
[5]
  IC50: Not Active
[6]
  IC50: Not Active

## CN(C)CCOC(c1ccccc1)c1ccccc1 [DIPHENHYDRAMINE]
[1]
  IC50: Not Active
Neutrophil elastase
  IC50: Not Active
[5]
  IC50: Not Active
[6]
  IC50: Not Active

## Clc1ccc(COC(Cn2ccnc2)c2ccc(Cl)cc2Cl)cc1 (stereo unspecified) [ECONAZOLE]
[1]
  pIC50: 4.86
Neutrophil elastase
  IC50: Not Active
[5]
  pIC50: 4.92
[6]
  IC50: Not Active

## CCN(CC)CCOc1ccc(/C(=C(/Cl)c2ccccc2)c2ccccc2)cc1 [ENCLOMIPHENE]
[1]
  pIC50: 5.78
Neutrophil elastase
  IC50: Not Active
Cytochrome P450 2C19
  IC50: Not Active
  Ki: Not Active
[5]
  pIC50: 5.60
[6]
  IC50: Not Active

## Fc1ccc(C(c2ccc(F)cc2)N2CCN(C/C=C/c3ccccc3)CC2)cc1 [FLUNARIZINE]
[1]
  IC50: Not Active
Neutrophil elastase
  IC50: Not Active
Cytochrome P450 2C19
  IC50: Not Active
  Ki: Not Active
[5]
  IC50: Not Active
[6]
  IC50: Not Active

## CNCCC(Oc1ccc(C(F)(F)F)cc1)c1ccccc1 (stereo unspecified) [FLUOXETINE]
[1]
  IC50: Not Active
Neutrophil elastase
  IC50: Not Active
Cytochrome P450 2C19
  IC50: Not Active
  Ki: Not Active
[5]
  IC50: Not Active
[6]
  IC50: Not Active

## Cc1ccc(NC(=O)c2ccc(CN3CCN(C)CC3)cc2)cc1Nc1nccc(-c2cccnc2)n1 [IMATINIB]
Neutrophil elastase
  IC50: Not Active
Cytochrome P450 2C19
  IC50: Not Active
  Ki: Not Active
[6]
  IC50: Not Active

## CC(C)Oc1ccc2c(=O)c(-c3ccccc3)coc2c1 [IPRIFLAVONE]
[1]
  IC50: Not Active
[2]
  IC50: Not Active
  Ki: Not Active
Neutrophil elastase
  IC50: Not Active
Cytochrome P450 2C19
  IC50: Not Active
  Ki: Not Active
[3]
  IC50: Not Active
  Ki: Not Active
[4]
  IC50: Not Active
  Ki: Not Active
[5]
  IC50: Not Active
[6]
  IC50: Not Active

## CC(C)NCC(O)c1ccc(O)c(O)c1 (stereo unspecified) [ISOPROTERENOL]
[1]
  IC50: Not Active
[2]
  IC50: Not Active
  Ki: Not Active
Neutrophil elastase
  IC50: Not Active
Cytochrome P450 2C19
  IC50: Not Active
  Ki: Not Active
[3]
  IC50: Not Active
  Ki: Not Active
[4]
  IC50: Not Active
  Ki: Not Active
[5]
  IC50: Not Active
[6]
  IC50: Not Active

## CNC1(c2ccccc2Cl)CCCCC1=O (stereo unspecified) [KETAMINE]
[1]
  IC50: Not Active
[2]
  IC50: Not Active
  Ki: Not Active
Neutrophil elastase
  IC50: Not Active
Cytochrome P450 2C19
  IC50: Not Active
  Ki: Not Active
[3]
  IC50: Not Active
  Ki: Not Active
[4]
  IC50: Not Active
  Ki: Not Active
[5]
  IC50: Not Active
[6]
  IC50: Not Active

## N#Cc1ccc(C(c2ccc(C#N)cc2)n2cncn2)cc1 [LETROZOLE]
[1]
  IC50: Not Active
[2]
  IC50: Not Active
  Ki: Not Active
Neutrophil elastase
  IC50: Not Active
Cytochrome P450 2C19
  IC50: Not Active
  Ki: Not Active
[3]
  IC50: Not Active
  Ki: Not Active
[4]
  IC50: Not Active
  Ki: Not Active
[5]
  IC50: Not Active
[6]
  IC50: Not Active

## CCN1CCC[C@H]1CNC(=O)c1cc(S(N)(=O)=O)ccc1OC [LEVOSULPIRIDE]
[1]
  IC50: Not Active
[2]
  IC50: Not Active
  Ki: Not Active
Neutrophil elastase
  IC50: Not Active
Cytochrome P450 2C19
  IC50: Not Active
  Ki: Not Active
[3]
  IC50: Not Active
  Ki: Not Active
[4]
  IC50: Not Active
  Ki: Not Active
[5]
  IC50: Not Active
[6]
  IC50: Not Active

## CCN(CC)CC(=O)Nc1c(C)cccc1C [LIDOCAINE]
[1]
  IC50: Not Active
[2]
  IC50: Not Active
  Ki: Not Active
Neutrophil elastase
  IC50: Not Active
[3]
  IC50: Not Active
  Ki: Not Active
[4]
  IC50: Not Active
  Ki: Not Active
[5]
  IC50: Not Active
[6]
  IC50: Not Active

## O=C1Nc2ccc(Cl)cc2C(c2ccccc2Cl)=NC1O (stereo unspecified) [LORAZEPAM]
[1]
  IC50: Not Active
[2]
  IC50: Not Active
  Ki: Not Active
Neutrophil elastase
  IC50: Not Active
Cytochrome P450 2C19
  IC50: Not Active
  Ki: Not Active
[3]
  IC50: Not Active
  Ki: Not Active
[4]
  IC50: Not Active
  Ki: Not Active
[5]
  IC50: Not Active
[6]
  IC50: Not Active

## CO[C@@H]1[C@@H](OC)[C@H](C)[C@@](O)(CC(=O)O)O[C@H]1[C@H](C)[C@H]1O[C@@]2(CC[C@@](C)([C@H]3CC[C@@](C)([C@@H]4O[C@@H]([C@H]5O[C@](C)(O)[C@H](C)C[C@@H]5C)C[C@@H]4O[C@@H]4C[C@H](OC)[C@@H](OC)[C@H](C)O4)O3)O2)C[C@H](O)[C@H]1C [MADURAMICIN ACID]
[1]
  IC50: Not Active
[2]
  IC50: Not Active
  Ki: Not Active
Neutrophil elastase
  IC50: Not Active
Cytochrome P450 2C19
  IC50: Not Active
  Ki: Not Active
[3]
  IC50: Not Active
  Ki: Not Active
[4]
  IC50: Not Active
  Ki: Not Active
[5]
  IC50: Not Active
[6]
  IC50: Not Active

## COc1c2occc2cc2ccc(=O)oc12 [METHOXSALEN]
[1]
  IC50: Not Active
[2]
  IC50: Not Active
  Ki: Not Active
Neutrophil elastase
  IC50: Not Active
Cytochrome P450 2C19
  IC50: Not Active
  Ki: Not Active
[3]
  IC50: Not Active
  Ki: Not Active
[4]
  IC50: Not Active
  Ki: Not Active
[5]
  IC50: Not Active
[6]
  IC50: Not Active

## C[C@H]1C[C@@H]2[C@H]([C@@H](O)C[C@@]3(C)[C@H]2CC[C@]3(O)C(=O)CO)[C@@]2(C)C=CC(=O)C=C12 [METHYLPREDNISOLONE]
[1]
  IC50: Not Active
[2]
  IC50: Not Active
  Ki: Not Active
Neutrophil elastase
  IC50: Not Active
[3]
  IC50: Not Active
  Ki: Not Active
[4]
  IC50: Not Active
  Ki: Not Active
[5]
  IC50: Not Active
[6]
  IC50: Not Active

## Cc1cccc(C)c1OCC(C)N (stereo unspecified) [MEXILETINE]
[1]
  IC50: Not Active
[2]
  IC50: Not Active
  Ki: Not Active
Neutrophil elastase
  IC50: Not Active
Cytochrome P450 2C19
  IC50: Not Active
  Ki: Not Active
[3]
  IC50: Not Active
  Ki: Not Active
[4]
  IC50: Not Active
  Ki: Not Active
[5]
  IC50: Not Active
[6]
  IC50: Not Active

## CN[C@H]1CC[C@@H](c2ccc(Cl)c(Cl)c2)c2ccccc21 [SERTRALINE]
[1]
  IC50: Not Active
Neutrophil elastase
  IC50: Not Active
[5]
  IC50: Not Active
[6]
  IC50: Not Active

## CCCCNc1ccc(C(=O)OCCN(C)C)cc1 [TETRACAINE]
[1]
  IC50: Not Active
[2]
  IC50: Not Active
  Ki: Not Active
Neutrophil elastase
  IC50: Not Active
[3]
  IC50: Not Active
  Ki: Not Active
[4]
  IC50: Not Active
  Ki: Not Active
[5]
  IC50: Not Active
[6]
  IC50: Not Active

## Clc1ccccc1CN1CCc2sccc2C1 [TICLOPIDINE]
[1]
  IC50: Not Active
[2]
  IC50: Not Active
  Ki: Not Active
Neutrophil elastase
  IC50: Not Active
[3]
  IC50: Not Active
  Ki: Not Active
[4]
  IC50: Not Active
  Ki: Not Active
[5]
  IC50: Not Active
[6]
  IC50: Not Active
